As usually defined, the EC50 is the concentration giving half of the maximal effect.

These results are taken from patent publication US12492193B2, “Pyrazole derivatives for the treatment of cystic fibrosis” (Fondazione Istituto Italiano Di Tecnologia, priority 2017, dated 2025).

The target in this experiment is T1, mutant CFTR (Homo sapiens, UniProt P13569, DEL508-508).
T1 construct: expressed in transfected cells
Kind of experiment: Fluorescence (HS-YFP) assay for CFTR activity, corrector assay. The format is cell-based. Particulars: CFBE41o- and FRT cells with stable expression of mutant CFTR, 24 h compound treatment. Here is the method: Fluorescence Assay for CFTR Activity
Mutant CFTR activity was determined with the functional assay based on the halide-sensitive yellow fluorescent protein, HS-YFP (Galietta et al., FEBS Lett 499: 220-224, 2001). CFBE41o- and FRT cells with stable expression of mutant CFTR and HS-YFP were plated on clear-bottom 96-well black microplates (Code 3603, Corning Life Sciences) at a density of 50,000 cells/well and kept at 37° C. in 5% CO2 for 24 hours. For the corrector assay, cells were treated for further 24 hours with test compounds, vehicle (DMSO), or the positive control VX-809. After treatment, the culture medium was removed and cells in each well were stimulated for 30 min at 37° C. with 60 μL PBS (containing 137 mM NaCl, 2.7 mM KCl, 8.1 mM Na2HPO4, 1.5 mM KH2PO4, 1 mM CaCl2, and 0.5 mM MgCl2) plus forskolin (20 μM) and genistein (50 μM).
For determination of potentiator activity on G551D-CFTR or G1349D-CFTR, cells were directly stimulated with forskolin plus test compound without previous incubation at low temperature. At the time of assay, microplates carrying CFBE41o- or FRT cells were transferred to microplate readers (BMG Labtech) equipped with high-quality excitation (HQ500/20X: 500±10 nm) and emission (HQ535/30M: 535±15 nm) filters for YFP (Chroma Technology). The assay consisted of a continuous 14 s fluorescence reading with 2 s before and 12 s after injection of an iodide-containing solution (165 μL of a modified PBS containing I^− instead of Cl^−; final I^− concentration in the well: 100 mM). Data were normalized to the initial background-subtracted fluorescence. Enhanced CFTR activity, induced by correctors and/or potentiators, results in accelerated I^− influx that in turn causes faster HS-YFP quenching (Pedemonte et al., Mol Pharmacol 68:1736-1746, 2005; Pedemonte et al., J Clin Invest 115:2564-2571, […]). To determine fluorescence quenching rate associated with I^− influx, the […] 10 s of data for each well were fitted with an exponential function to extrapolate initial slope (dF/dt).
EC50 obtained are illustrated in table 1 wherein +: EC50>2 μM; ++: 1.0 μM<EC50<2 μM; +++: EC50<1 μM.

T1 sequence (P13569 with tags, fused parts or gaps DEL508-508): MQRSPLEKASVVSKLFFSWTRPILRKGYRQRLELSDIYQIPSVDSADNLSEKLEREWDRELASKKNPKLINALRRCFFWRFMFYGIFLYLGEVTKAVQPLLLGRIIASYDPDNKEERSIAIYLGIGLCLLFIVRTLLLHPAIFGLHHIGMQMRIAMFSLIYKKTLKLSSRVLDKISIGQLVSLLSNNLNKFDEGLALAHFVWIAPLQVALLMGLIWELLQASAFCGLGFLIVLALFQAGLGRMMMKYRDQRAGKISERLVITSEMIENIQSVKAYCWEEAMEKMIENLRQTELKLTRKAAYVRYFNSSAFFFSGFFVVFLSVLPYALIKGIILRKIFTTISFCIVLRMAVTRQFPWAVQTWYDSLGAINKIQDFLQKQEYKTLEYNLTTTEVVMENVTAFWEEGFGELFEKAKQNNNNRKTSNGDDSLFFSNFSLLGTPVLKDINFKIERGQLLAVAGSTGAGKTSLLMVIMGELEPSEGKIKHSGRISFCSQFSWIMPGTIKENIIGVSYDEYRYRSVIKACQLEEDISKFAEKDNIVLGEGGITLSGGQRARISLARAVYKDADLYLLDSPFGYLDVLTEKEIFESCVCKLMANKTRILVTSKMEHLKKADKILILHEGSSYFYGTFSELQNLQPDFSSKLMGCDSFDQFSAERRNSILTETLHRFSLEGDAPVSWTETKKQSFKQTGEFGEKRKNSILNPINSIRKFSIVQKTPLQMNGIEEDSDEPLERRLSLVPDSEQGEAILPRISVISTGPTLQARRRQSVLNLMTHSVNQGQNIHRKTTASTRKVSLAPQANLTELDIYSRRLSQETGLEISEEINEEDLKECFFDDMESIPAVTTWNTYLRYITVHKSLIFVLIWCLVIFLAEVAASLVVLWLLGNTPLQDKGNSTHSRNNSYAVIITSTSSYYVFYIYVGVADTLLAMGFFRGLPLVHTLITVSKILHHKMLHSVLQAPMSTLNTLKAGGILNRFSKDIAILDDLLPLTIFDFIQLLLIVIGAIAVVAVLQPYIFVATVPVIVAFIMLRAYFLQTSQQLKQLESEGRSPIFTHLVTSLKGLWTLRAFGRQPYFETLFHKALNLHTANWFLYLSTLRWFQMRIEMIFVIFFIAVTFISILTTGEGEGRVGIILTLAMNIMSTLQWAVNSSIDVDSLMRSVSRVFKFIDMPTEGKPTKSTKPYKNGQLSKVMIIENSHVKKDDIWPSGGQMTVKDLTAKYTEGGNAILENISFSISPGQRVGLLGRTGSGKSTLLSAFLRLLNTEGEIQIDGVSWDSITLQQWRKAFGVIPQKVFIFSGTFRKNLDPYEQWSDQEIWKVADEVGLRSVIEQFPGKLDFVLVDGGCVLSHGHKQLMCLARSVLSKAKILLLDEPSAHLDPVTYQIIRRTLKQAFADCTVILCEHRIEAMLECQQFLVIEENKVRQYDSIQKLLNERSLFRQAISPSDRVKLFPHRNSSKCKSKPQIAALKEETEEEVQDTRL

For `CN(C(=O)c1cccc(-n2nc(C(F)(F)F)cc2OC2CCC(C(=O)O)CC2)c1)c1ccc2c(c1)OCO2` (mixture of isomers) [compound 215, 4-[2-[3-[1,3-benzodioxol-5-yl(methyl)carbamoyl]phenyl]-5-(trifluoromethyl)pyrazol-3-yl]oxycyclohexane carboxylic acid], the EC50 is under 1 µM.

`Cc1nn(-c2cccc(C(=O)N(C)c3ccc4c(c3)OCO4)c2)c([C@H](O)c2ccccc2)c1Cl` (racemic) [compound 109, N-(1,3-benzodioxol-5-yl)-3-[4-chloro-5-[(rac)-hydroxy(phenyl)methyl]-3-methyl-pyrazol-1-yl]-N-methyl-benzamide]: the EC50 was under 1 µM. For `Cc1nn(-c2cccc(C(=O)N(C)c3ccc4c(c3)OCO4)c2)c([C@@H](C)O)c1Cl` (racemic) [compound 114, N-(1,3-benzodioxol-5-yl)-3-[4-chloro-5-[(rac)-1-hydroxyethyl]-3-methyl-pyrazol-1-yl]-N-methyl-benzamide] the value was over 2 µM; for `CO[C@H](c1ccccc1)c1c(Cl)c(C)nn1-c1cccc(C(=O)N(C)c2ccc3c(c2)OCO3)c1` (racemic) [compound 117, N-(1,3-Benzodioxol-5-yl)-3-[4-chloro-5-[(rac)-methoxy (phenyl)methyl]-3-methyl-pyrazol-1-yl]-N-methyl-benzamide], under 1 µM; for `Cc1nn(-c2cccc(C(=O)Nc3ccc4c(c3)OCCO4)c2)c(C)c1Cl` [Int-002, 3-(4-Chloro-3,5-dimethyl-pyrazol-1-yl)-N-(2,3-dihydro-1,4-benzodioxin-6-yl)benzamide], over 2 µM. For `Cc1nn(-c2cccc(C(=O)Nc3ccc4c(c3)OC(F)(F)C(F)(F)O4)c2)c(C)c1Cl` [Int-005, 3-(4-Chloro-3,5-dimethyl-pyrazol-1-yl)-N-(2,2,3,3-tetrafluoro-1,4-benzodioxin-6-yl)benzamide] the value was over 2 µM; for `Cc1nn(-c2cccc(C(=O)Nc3ccc4c(c3)OC(F)(F)O4)c2)c(C)c1Cl` [Int-006, 3-(4-Chloro-3,5-dimethyl-pyrazol-1-yl)-N-(2,2-difluoro-1,3-benzodioxol-5-yl)benzamide], over 2 µM; for `Cc1nn(-c2cccc(C(=O)Nc3ccc4c(c3)OCO4)c2)c(C)c1Cl` [Int-012, N-(1,3-Benzodioxol-5-yl)-3-(4-chloro-3,5-dimethyl-pyrazol-1-yl)benzamide], over 2 µM.

Turning to `COc1ccc(NC(=O)c2cccc(-n3nc(C)c(Cl)c3C)c2)cc1OC` [Int-013, 3-(4-Chloro-3,5-dimethyl-pyrazol-1-yl)-N-(3,4-dimethoxyphenyl)benzamide], the EC50 is over 2 µM.

`Cc1nn(-c2cccc(C(=O)Nc3ccc4c(c3)NCCO4)c2)c(C)c1Cl` [Int-016, 3-(4-Chloro-3,5-dimethyl-pyrazol-1-yl)-N-(3,4-dihydro-2H-1,4-benzoxazin-6-yl)benzamide]: the EC50 was over 2 µM. For `Cc1nn(-c2cccc(C(=O)Nc3ccc4c(c3)OCCN4)c2)c(C)c1Cl` [Int-018, 3-(4-chloro-3,5-dimethyl-pyrazol-1-yl)-N-(3,4-dihydro-2H-1,4-benzoxazin-7-yl)benzamide] the value was over 2 µM; for `Cc1nn(-c2cccc(C(=O)Nc3cccc4c3OC(F)(F)O4)c2)c(C)c1Cl` [Int-022, 3-(4-Chloro-3,5-dimethyl-pyrazol-1-yl)-N-(2,2-difluoro-1,3-benzodioxol-4-yl)benzamide], 1 to 2 µM. In the case of `Cc1nn(-c2cccc(C(=O)Nc3ccc4c(c3)CCCC4)c2)c(C)c1Cl` [Int-040], the EC50 is over 2 µM. Turning to `Cc1cc2c(cc1NC(=O)c1cccc(-n3nc(C)c(Cl)c3C)c1)OCO2` [Int-041, 3-(4-Chloro-3,5-dimethyl-pyrazol-1-yl)-N-(6-methyl-1,3-benzodioxol-5-yl)benzamide], the EC50 is over 2 µM.

Take `Cc1nc2ccc(NC(=O)c3cccc(-n4nc(C)c(Cl)c4C)c3)cc2o1` [Int-045, 3-(4-Chloro-3,5-dimethyl-pyrazol-1-yl)-N-(2-methyl-1,3-benzoxazol-6-yl)benzamide]: the EC50 is over 2 µM.

Consider `Cc1nn(-c2cccc(C(=O)Nc3ccc4c(c3)COC4)c2)c(C)c1Cl` [Int-051], for which the EC50 is over 2 µM. With `Cc1nn(-c2cccc(C(=O)Nc3ccc4c(c3)CCO4)c2)c(C)c1Cl` [Int-052], the EC50 was over 2 µM. For `Cc1nn(-c2cccc(C(=O)Nc3ccc4oc(C5CC5)nc4c3)c2)c(C)c1Cl` [Int-053, 3-(4-Chloro-3,5-dimethyl-pyrazol-1-yl)-N-(2-cyclopropyl-1,3-benzoxazol-5-yl)benzamide] the value was over 2 µM. For `Cc1nn(-c2cccc(C(=O)Nc3ccc4oc(C(C)C)nc4c3)c2)c(C)c1Cl` [Int-061, 3-(4-Chloro-3,5-dimethyl-pyrazol-1-yl)-N-(2-isopropyl-1,3-benzoxazol-5-yl)benzamide], the EC50 is over 2 µM.

As to `COc1nc2cc(NC(=O)c3cccc(-n4nc(C)c(Cl)c4C)c3)ccc2o1` [Int-063, 3-(4-Chloro-3,5-dimethyl-pyrazol-1-yl)-N-(2-methoxy-1,3-benzoxazol-5-yl)benzamide], the EC50 was over 2 µM. For `Cc1c(Cl)c(C(F)(F)F)nn1-c1cccc(C(=O)Nc2ccc3cn(C)nc3c2)c1` [Int-121, 3-[4-Chloro-5-methyl-3-(trifluoromethyl)pyrazol-1-yl]-N-(2-methylindazol-6-yl)benzamide] the value was over 2 µM; for `Cc1nc2ccc(NC(=O)c3cccc(-n4nc(C(F)(F)F)c(Cl)c4C4CC4)c3)cc2o1` [Int-136, 3-[4-Chloro-5-cyclopropyl-3-(trifluoromethyl)pyrazol-1-yl]-N-(2-methyl-1,3-benzoxazol-6-yl)benzamide], under 1 µM. For `Cc1nc2ccc(NC(=O)c3cccc(-n4nc(C(F)(F)F)c(Cl)c4C)c3)cc2s1` [Int-148, 3-[4-Chloro-5-methyl-3-(trifluoromethyl)pyrazol-1-yl]-N-(2-methyl-1,3-benzothiazol-6-yl)benzamide] the value was under 1 µM; for `Cc1nc2cc(F)c(NC(=O)c3cccc(-n4nc(C(F)(F)F)c(Cl)c4C)c3)cc2o1` [Int-153, 3-[4-Chloro-5-methyl-3-(trifluoromethyl)pyrazol-1-yl]-N-(5-fluoro-2-methyl-1,3-benzoxazol-6-yl)benzamide], under 1 µM; for `Cc1c(Cl)c(C(F)(F)F)nn1-c1cccc(C(=O)Nc2cc3c(cc2C=O)OCO3)c1` [Int-160, 3-[4-chloro-5-methyl-3-(trifluoromethyl)pyrazol-1-yl]-N-(6-formyl-1,3-benzodioxol-5-yl)benzamide], over 2 µM. The same measure for `Cc1c(Cl)c(C(F)(F)F)nn1-c1cccc(C(=O)Nc2cc3c(cc2CO)OCO3)c1` [Int-167, 3-[4-chloro-5-methyl-3-(trifluoromethyl)pyrazol-1-yl]-N-[6-(hydroxymethyl)-1,3-benzodioxol-5-yl]benzamide]: under 1 µM.

For `CC(C)(C)OC(=O)c1ccc(OCc2c(Cl)c(C(F)(F)F)nn2-c2cccc(C(=O)Nc3ccc4c(c3)OC(F)(F)O4)c2)cc1` [Int-172, Tert-butyl 4-[[4-chloro-2-[3-[(2,2-difluoro-1,3-benzodioxol-5-yl)carbamoyl]phenyl]-5-(trifluoromethyl)pyrazol-3-yl]methoxy]benzoate], the EC50 is over 2 µM. For `Cc1c(Cl)c(C(F)(F)F)nn1-c1cccc(C(=O)Nc2cc3c(cc2C(=O)O)OCO3)c1` [Int-178, 6-[[3-[4-chloro-5-methyl-3-(trifluoromethyl)pyrazol-1-yl]benzoyl]amino]-1,3-benzodioxole-5-carboxylic acid] the value was over 2 µM; for `Cc1c(Cl)c(C(F)(F)F)nn1-c1cccc(C(=O)Nc2ccc3c(c2C=O)OCO3)c1` [Int-203, 3-[4-chloro-5-methyl-3-(trifluoromethyl)pyrazol-1-yl]-N-(4-formyl-1,3-benzodioxol-5-yl)benzamide], over 2 µM. For `Cc1nn(-c2cccc(C(=O)N(c3ccc4c(c3)OCCO4)C(C)C)c2)c(C)c1Cl` [compound 003, 3-(4-Chloro-3,5-dimethyl-pyrazol-1-yl)-N-(2,3-dihydro-1,4-benzodioxin-6-yl)-N-isopropyl-benzamide] the value was over 2 µM; for `CCN(C(=O)c1cccc(-n2nc(C)c(Cl)c2C)c1)c1ccc2c(c1)OCCO2` [compound 004, 3-(4-Chloro-3,5-dimethyl-pyrazol-1-yl)-N-(2,3-dihydro-1,4-benzodioxin-6-yl)-N-ethyl-benzamide], under 1 µM. The same measure for `Cc1nn(-c2cccc(C(=O)N(C)c3ccccc3)c2)c(C)c1Cl` [compound 007, 3-(4-Chloro-3,5-dimethyl-pyrazol-1-yl)-N-methyl-N-phenyl-benzamide]: over 2 µM.
